According to patent US8927717B1, “Thiochromeno[2,3-c]quinolin-12-one derivatives, preparation method and application thereof” (National Defense Medical Center, priority 2014, dated 2015):

Assays:
TOP I (Topoisomerase I) [1] = target: T1, TOP I (Topoisomerase I) (Homo sapiens, UniProt P11387); experiment: TOP I mediated supercoiled DNA relaxation assay; assay type: biochemical; conditions: primary assay at 25 and/or 50 μM
T1 construct: purchased TopoGEN TG2005H
T1 sequence (P11387 1-765): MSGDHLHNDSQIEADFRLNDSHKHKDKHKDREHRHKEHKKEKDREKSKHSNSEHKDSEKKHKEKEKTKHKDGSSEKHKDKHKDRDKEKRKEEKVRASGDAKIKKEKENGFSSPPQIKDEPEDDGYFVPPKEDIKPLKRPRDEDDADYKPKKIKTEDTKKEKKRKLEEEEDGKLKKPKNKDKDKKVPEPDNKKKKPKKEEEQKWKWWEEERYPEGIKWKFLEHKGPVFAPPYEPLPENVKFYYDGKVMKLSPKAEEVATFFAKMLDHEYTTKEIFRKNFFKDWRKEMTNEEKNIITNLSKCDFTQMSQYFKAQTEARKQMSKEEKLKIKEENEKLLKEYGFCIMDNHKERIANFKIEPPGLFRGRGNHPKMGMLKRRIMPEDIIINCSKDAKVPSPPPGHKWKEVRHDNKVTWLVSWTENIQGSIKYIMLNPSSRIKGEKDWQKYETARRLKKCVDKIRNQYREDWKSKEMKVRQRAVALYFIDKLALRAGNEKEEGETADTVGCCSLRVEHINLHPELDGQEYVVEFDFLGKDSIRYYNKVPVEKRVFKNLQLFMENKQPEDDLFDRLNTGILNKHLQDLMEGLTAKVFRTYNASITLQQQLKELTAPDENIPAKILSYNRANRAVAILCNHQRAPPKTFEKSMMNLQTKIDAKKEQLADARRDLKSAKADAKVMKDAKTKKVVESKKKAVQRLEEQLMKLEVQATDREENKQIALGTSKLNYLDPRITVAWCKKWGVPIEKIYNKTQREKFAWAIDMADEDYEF
Description: According to the cell cytotoxicity, compounds 5, 7, 8, 16, 19, N2, N7, N8, N9, N14-N19, and N25 were also selected for primary TOP I and II activities assays at 25 and/or 50 μM (FIG. 2-4).

[2] = target: T2, TOP II (Topoisomerase II) (Homo sapiens, UniProt P11388); experiment: TOP II-catalyzed relaxation of plasmid DNA assay; assay type: biochemical
T2 construct: purchased TopoGEN TG-2000H-1
T2 sequence (P11388 whole entry): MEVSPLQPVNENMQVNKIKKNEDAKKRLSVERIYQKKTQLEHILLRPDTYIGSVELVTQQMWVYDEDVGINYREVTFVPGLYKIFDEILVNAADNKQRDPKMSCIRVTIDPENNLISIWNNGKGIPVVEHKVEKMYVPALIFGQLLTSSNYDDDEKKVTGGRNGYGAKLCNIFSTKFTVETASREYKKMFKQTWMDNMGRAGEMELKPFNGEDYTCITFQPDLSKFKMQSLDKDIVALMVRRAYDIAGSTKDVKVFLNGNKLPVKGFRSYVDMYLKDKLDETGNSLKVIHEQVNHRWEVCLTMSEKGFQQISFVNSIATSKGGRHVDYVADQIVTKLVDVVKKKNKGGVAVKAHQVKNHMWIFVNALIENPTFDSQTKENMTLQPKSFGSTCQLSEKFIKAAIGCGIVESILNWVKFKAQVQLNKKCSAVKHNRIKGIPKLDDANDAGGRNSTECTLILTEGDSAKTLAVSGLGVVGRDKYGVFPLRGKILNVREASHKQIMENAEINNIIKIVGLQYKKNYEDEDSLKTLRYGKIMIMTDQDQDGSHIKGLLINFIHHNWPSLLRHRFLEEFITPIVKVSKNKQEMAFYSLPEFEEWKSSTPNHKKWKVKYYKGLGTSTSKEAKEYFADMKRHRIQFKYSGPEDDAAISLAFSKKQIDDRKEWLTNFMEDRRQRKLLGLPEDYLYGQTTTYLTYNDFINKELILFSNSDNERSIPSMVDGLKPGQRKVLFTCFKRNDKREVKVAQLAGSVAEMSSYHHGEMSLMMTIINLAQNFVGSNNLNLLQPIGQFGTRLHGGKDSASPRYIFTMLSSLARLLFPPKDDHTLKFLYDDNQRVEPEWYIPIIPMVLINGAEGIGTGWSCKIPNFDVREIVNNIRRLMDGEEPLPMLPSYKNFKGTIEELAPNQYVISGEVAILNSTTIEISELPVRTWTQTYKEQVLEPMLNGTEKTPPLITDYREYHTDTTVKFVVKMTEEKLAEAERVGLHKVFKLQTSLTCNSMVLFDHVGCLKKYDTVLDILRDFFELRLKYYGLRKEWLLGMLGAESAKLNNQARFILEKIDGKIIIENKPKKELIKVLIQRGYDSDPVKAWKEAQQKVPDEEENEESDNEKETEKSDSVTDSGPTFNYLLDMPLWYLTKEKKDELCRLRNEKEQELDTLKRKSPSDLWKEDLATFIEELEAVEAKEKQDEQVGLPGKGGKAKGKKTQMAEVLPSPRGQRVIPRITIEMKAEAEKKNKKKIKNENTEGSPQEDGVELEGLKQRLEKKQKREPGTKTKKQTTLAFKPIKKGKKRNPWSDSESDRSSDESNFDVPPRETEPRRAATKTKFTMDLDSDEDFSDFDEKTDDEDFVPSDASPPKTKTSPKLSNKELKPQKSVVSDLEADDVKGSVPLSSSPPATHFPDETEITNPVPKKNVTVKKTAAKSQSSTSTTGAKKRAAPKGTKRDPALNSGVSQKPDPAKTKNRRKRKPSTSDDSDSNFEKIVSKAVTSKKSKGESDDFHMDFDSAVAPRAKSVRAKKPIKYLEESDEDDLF
Description: We also performed TOP II-catalyzed relaxation of plasmid DNA assays (FIG. 5-7) to evaluate if compounds could inhibit TOP II. […] The IC50 value of compounds 7, N7, N8, N14, N15, N18, and N19 were about 10, 10, 1, 10, 5, 1, and 1 μM, respectively (detect by TopoGEN TG2005H, TG-2000H-1).

HOP-62 = assay type: cell-based
HOP-92 = assay type: cell-based; conditions: Non-small cell lung cancer; 10^−5 molar; 48 hours; SRB
NCI-H226 = assay type: cell-based
HCC-2998 = assay type: cell-based
HCT-116 = assay type: cell-based
KM12 = experiment: cells; assay type: cell-based
SF-268 = assay type: cell-based
SF-539 = assay type: cell-based
U251 = assay type: cell-based
SK-MEL-2 = assay type: cell-based
SK-MEL-5 = assay type: cell-based
UACC-257 = assay type: cell-based
IGROV1 = assay type: cell-based
OVCAR-3 = assay type: cell-based
OVCAR-4 = assay type: cell-based
NCI/ADR-RES = assay type: cell-based
SK-OV-3 = assay type: cell-based
ACHN = assay type: cell-based
CAKI-1 = assay type: cell-based
MDA-MB-231/ATCC = assay type: cell-based
TOP I (Topoisomerase I) [3] = target: T1, TOP I (Topoisomerase I); experiment: TOP I mediated supercoiled DNA relaxation assay; assay type: biochemical; conditions: five different concentrations; TopoGEN TG2005H, TG-2000H-1
[4] = Homo sapiens, HOP-62, five dose
[5] = Non-small cell lung cancer, 10^−5 molar, 48 hours, SRB
[6] = Homo sapiens, NCI-H226, five dose
[7] = Colon cancer, 10^−5 molar, 48 hours, SRB
[8] = Homo sapiens, HCC-2998, five dose
[9] = Homo sapiens, HCT-116, five dose
[10] = CNS cancer, 10^−5 molar, 48 hours, SRB
[11] = Homo sapiens, SF-539, five dose
[12] = Homo sapiens, U-251, U251, five dose
[13] = Homo sapiens, SK-Mel-2, five dose
[14] = Melanoma, 10^−5 molar, 48 hours, SRB
[15] = Homo sapiens, SK-MEL-5, five dose
[16] = Ovarian cancer, 10^−5 molar, 48 hours, SRB
[17] = Renal cancer, 10^−5 molar, 48 hours, SRB

## CN(C)CCNc1nc2ccccc2c2c(=O)c3cc(Cl)ccc3sc12 [Compound N7, 10-Chloro-6-((2-(dimethylamino)ethyl)amino)-12H-thiochromeno[2,3-c]quinolin-12-one]
TOP I (Topoisomerase I) [1]
  inhibitory effect in TOP I activity assay compared with CPT: more potent inhibitory effects than CPT
[2]; five different concentrations, TopoGEN TG2005H, TG-2000H-1, read-out: IC50 value, TOP II mediated supercoiled DNA relaxation
  IC50: ~10 µM
[2]; primary assay at 25 and/or 50 μM
  inhibitory effect in TOP II relaxation assay compared with VP-16: more potent inhibitory effects than the positive agent VP-16
HOP-62; HOP-62, five dose
  TGI: 2.92 µM
HOP-62; [4]
  GI50: 1540 nM
  LC50 (lethal concentration 50): 5.56 µM
HOP-62; [5]
  Growth percent HOP-62: 56.42%
HOP-92
  Growth percent HOP-92: −10.12%
NCI-H226; [6]
  GI50: 1840 nM
  LC50 (concentration giving 50% net cell kill): 24.3 µM
NCI-H226; NCI-H226, five dose
  TGI: 4.38 µM
NCI-H226; [5]
  Growth percent NCI-H226: 58.08%
HCC-2998; [7]
  Growth percent HCC-2998: −83.65%
HCC-2998; HCC-2998, five dose
  TGI: 3.38 µM
HCC-2998; [8]
  GI50: 1680 nM
  LC50: 6.82 µM
HCT-116; [7]
  Growth percent HCT-116: −96.59%
HCT-116; HCT-116, five dose
  TGI: 3.18 µM
HCT-116; [9]
  GI50: 1570 nM
  LC50 (concentration killing 50% of cells): 6.45 µM
KM12; [7]
  Growth percent KM12: −77.07%
KM12; Homo sapiens, KM12, five dose
  GI50: 1780 nM
  LC50: 6.03 µM
KM12; KM12, five dose
  TGI: 3.28 µM
SF-268; [10]
  Growth percent SF-268: 39.05%
SF-268; Homo sapiens, SF-268, five dose
  GI50: 1570 nM
SF-268; Homo sapiens, SF-268, five dose, read-out: LC50 (the source's name)
  CC50: 6.35 µM
SF-268; SF-268, five dose
  TGI: 3.16 µM
SF-539; [10]
  Growth percent SF-539: 48.73%
SF-539; [11]
  GI50: 1680 nM
  LC50: 5.67 µM
SF-539; SF-539, five dose
  TGI: 3.08 µM
U251; [10]
  Growth percent U251: −39.75%
U251; [12]
  GI50: 1480 nM
  LC50: 5.44 µM
U251; U251, five dose
  TGI: 2.84 µM
SK-MEL-2; [13]
  GI50: 1800 nM
  LC50: 6.12 µM
SK-MEL-2; [14]
  Growth percent SK-MEL-2: −7.83%
SK-MEL-2; SK-Mel-2, five dose
  TGI: 3.32 µM
SK-MEL-5; [15]
  GI50: 1570 nM
  LC50: 8.21 µM
SK-MEL-5; [14]
  Growth percent SK-MEL-5: 18.83%
SK-MEL-5; SK-MEL-5, five dose
  TGI: 3.59 µM
UACC-257; Homo sapiens, UACC-257, five dose
  GI50: 1740 nM
UACC-257; Homo sapiens, UACC-257, five dose, read-out: LC50 (the source's name)
  CC50: 5.93 µM
UACC-257; [14]
  Growth percent UACC-257: −48.22%
UACC-257; UACC-257, five dose
  TGI: 3.21 µM
IGROV1; Homo sapiens, IGROV-1, IGROV1, five dose
  GI50: 1700 nM
IGROV1; Homo sapiens, IGROV-1, IGROV1, five dose, read-out: LC50 (the source's name)
  CC50: 6.58 µM
IGROV1; IGROV1, five dose
  TGI: 3.34 µM
IGROV1; [16]
  Growth percent IGROV1: 33.20%
OVCAR-3; Homo sapiens, OVCAR-3, five dose
  GI50: 1610 nM
OVCAR-3; Homo sapiens, OVCAR-3, five dose, read-out: LC50 (the source's name)
  CC50: 5.58 µM
OVCAR-3; OVCAR-3, five dose
  TGI: 3.00 µM
OVCAR-3; [16]
  Growth percent OVCAR-3: 19.74%
OVCAR-4; Homo sapiens, OVCAR-4, five dose
  GI50: 1190 nM
OVCAR-4; Homo sapiens, OVCAR-4, five dose, read-out: LC50 (the source's name)
  CC50: 6.35 µM
OVCAR-4; OVCAR-4, five dose
  TGI: 2.75 µM
OVCAR-4; [16]
  Growth percent OVCAR-4: 60.67%
NCI/ADR-RES; Homo sapiens, NCI/ADR-RES, five dose
  GI50: 1670 nM
NCI/ADR-RES; Homo sapiens, NCI/ADR-RES, five dose, read-out: LC50 (the source's name)
  CC50: 6 µM
NCI/ADR-RES; NCI/ADR-RES, five dose
  TGI: 3.17 µM
NCI/ADR-RES; [16]
  Growth percent NCI/ADR-RES: 23.00%
SK-OV-3; Homo sapiens, SK-OV-3, five dose
  GI50: 1680 nM
SK-OV-3; Homo sapiens, SK-OV-3, five dose, read-out: LC50 (the source's name)
  CC50: 5.58 µM
SK-OV-3; [16]
  Growth percent SK-OV-3: 70.10%
SK-OV-3; SK-OV-3, five dose
  TGI: 3.06 µM
ACHN; ACHN, five dose
  TGI: 3.07 µM
ACHN; Homo sapiens, ACHN, five dose
  GI50: 1630 nM
ACHN; Homo sapiens, ACHN, five dose, read-out: LC50 (the source's name)
  CC50: 5.77 µM
ACHN; [17]
  Growth percent ACHN: 7.55%
CAKI-1; CAKI-1, five dose
  TGI: 2.80 µM
CAKI-1; Homo sapiens, CAKI-1, five dose
  GI50: 1430 nM
CAKI-1; Homo sapiens, CAKI-1, five dose, read-out: LC50 (the source's name)
  CC50: 5.49 µM
CAKI-1; [17]
  Growth percent CAKI-1: 34.60%
MDA-MB-231/ATCC; Breast cancer, 10^−5 molar, 48 hours, SRB
  Growth percent MDA-MB-231/ATCC: −37.28%
MDA-MB-231/ATCC; Homo sapiens, MDA-MB-231/ATCC, five dose
  GI50: 1200 nM
MDA-MB-231/ATCC; Homo sapiens, MDA-MB-231/ATCC, five dose, read-out: LC50 (the source's name)
  CC50: 5.28 µM
MDA-MB-231/ATCC; MDA-MB-231/ATCC, five dose
  TGI: 2.51 µM
TOP I (Topoisomerase I) [3]
  IC50: ~10 µM
